US20080009418A1, “Selective Inhibitors” (Alchemia LTD., priority 2004, published 2008)

Legend:
[1] = target: T1, Human δ-opioid (DOP) (Homo sapiens, UniProt P41143); assay: Radioligand binding, human δ-opioid (DOP) membranes, FlashPlate, [3H]-Bremazocine; details: compound at 10 μM; for A1 radioligand binding inhibition: human δ-opioid (DOP) membranes
T1 construct: purchased Perkin Elmer Biosignal
In short: (§1)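 Cloned human receptor membranes were coated onto FlashPlate wells and incubated with radioligand and compound (added from a 0.5 mM DMSO daughter plate) for 1 hour at room temperature in the dark. Scintillation counting gave percent inhibition, with DMSO defining total and reference ligand defining non-specific binding.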

[2] = target: T2, Human opioid (ORL1) (Homo sapiens, UniProt P41146); assay: Radioligand binding, human opioid ORL1 membranes, FlashPlate, [125I]-Nociceptin; details: compound at 10 μM
T2 construct: purchased Perkin Elmer Biosignal
In short: as §1

[3] = target: T3, Mouse urotensin (mUR2) (Mus musculus, UniProt Q8VIH9); assay: Radioligand binding, mouse urotensin mUR2 membranes, FlashPlate, [125I]-Urotensin II; details: compound at 10 μM; for A11 radioligand binding inhibition: mouse urotensin mUR2 membranes
T3 construct: purchased Perkin Elmer Biosignal
T3 sequence (Q8VIH9 1-385): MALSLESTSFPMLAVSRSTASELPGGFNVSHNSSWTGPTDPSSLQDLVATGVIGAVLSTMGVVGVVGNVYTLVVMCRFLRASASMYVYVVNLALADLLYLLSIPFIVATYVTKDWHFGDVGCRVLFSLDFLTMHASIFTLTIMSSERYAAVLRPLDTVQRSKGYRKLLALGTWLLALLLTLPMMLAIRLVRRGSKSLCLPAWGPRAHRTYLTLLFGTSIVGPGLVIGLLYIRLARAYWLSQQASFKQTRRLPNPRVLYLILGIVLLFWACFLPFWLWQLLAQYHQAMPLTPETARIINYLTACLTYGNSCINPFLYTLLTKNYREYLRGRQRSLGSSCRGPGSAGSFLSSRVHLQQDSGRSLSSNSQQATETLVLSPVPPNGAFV
In short: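 Cloned mouse urotensin (mUR2) receptor membranes from Perkin Elmer Biosignal were immobilized in FlashPlate microplates using a proprietary coating. Each well got 19.5 μl buffer, then 0.5 μl of DMSO, reference ligand, or compound. Adding 5 μl of [125I]-Urotensin II, diluted to 5× final concentration in binding buffer, started binding. Plates were sealed with TopSeal-A and incubated 1 hour at room temperature in the dark. Wells were counted for 30 seconds each on a TopCount after a 60-second delay, and percentage inhibition was calculated.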

[4] = target: T4, Human melanin-concentrating hormone (MCH1) (Homo sapiens, UniProt Q99705); assay: Radioligand binding, human melanin-concentrating hormone MCH1 membranes, FlashPlate, [125I]-S36057; details: compound at 10 μM; for A6 radioligand binding inhibition: human MCH1 membranes
T4 construct: purchased Perkin Elmer Biosignal
In short: as §1

[5] = target: T5, Human κ-Opioid (KOP) (Homo sapiens, UniProt P41145); assay: Radioligand binding, human κ-opioid (KOP) membranes, filtration, [3H]-Diprenorphine; details: compound at 10 μM; for A2 radioligand binding inhibition: human κ-opioid (KOP) membranes
T5 construct: purchased Perkin Elmer Biosignal
In short: (§2)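 Filtration binding on cloned human receptor membranes (1 Unit/well), [125I]-Substance P for NK1 and [3H]-Diprenorphine for KOP, 1 h at room temperature. Filters PEI-presoaked, washed with cold 50 mM Tris-HCl pH 7.4, counted by scintillation; percent inhibition calculated, reference ligand defining non-specific binding.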

[6] = target: T6, Human Melanocortin (MC4) (Homo sapiens, UniProt P32245); assay: Radioligand binding, human melanocortin MC4 membranes, FlashPlate, [125I]-NDP-αMSH; details: compound at 10 μM; for A4 radioligand binding inhibition: human melanocortin MC4 membranes
T6 construct: purchased Perkin Elmer Biosignal
In short: as §1

[7] = target: T7, Human neurokinin (NK1) (Homo sapiens, UniProt P25103); assay: Radioligand binding, human neurokinin NK1 membranes, filtration, [125I]-Substance P; details: compound at 10 μM; for A8 radioligand binding inhibition: human neurokinin NK1 membranes
T7 construct: purchased Perkin Elmer Biosignal
In short: as §2

[8] = target: T8, Human μ-opioid (MOP) (Homo sapiens, UniProt P35372); assay: Radioligand binding, human μ-opioid (MOP) membranes, FlashPlate, [3H]-Naloxone; details: compound at 10 μM; for A7 radioligand binding inhibition: human μ-opioid (MOP) membranes
T8 construct: purchased Perkin Elmer Biosignal
In short: as §1

[9] = target: T9, Human melanocortin (MC5) (Homo sapiens, UniProt P33032); assay: Radioligand binding, human melanocortin MC5 membranes, FlashPlate, [125I]-NDP-αMSH; details: compound at 10 μM; for A5 radioligand binding inhibition: human melanocortin MC5 membranes
T9 construct: purchased Perkin Elmer Biosignal
In short: as §1

[10] = target: T10, Human Melanocortin (MC3) (Homo sapiens, UniProt P41968); assay: Radioligand binding, human melanocortin MC3 membranes, FlashPlate, [125I]-NDP-αMSH; details: compound at 10 μM; for A3 radioligand binding inhibition: human melanocortin MC3 membranes
T10 construct: purchased Perkin Elmer Biosignal
In short: as §1

[11] = target: T11, Human neuropeptide Y (NPY-Y1) (Homo sapiens, UniProt P25929); assay: Radioligand binding, human neuropeptide Y NPY-Y1 membranes, FlashPlate, [125I]-PYY; details: compound at 10 μM
T11 construct: purchased Perkin Elmer Biosignal
T11 sequence (P25929 1-384): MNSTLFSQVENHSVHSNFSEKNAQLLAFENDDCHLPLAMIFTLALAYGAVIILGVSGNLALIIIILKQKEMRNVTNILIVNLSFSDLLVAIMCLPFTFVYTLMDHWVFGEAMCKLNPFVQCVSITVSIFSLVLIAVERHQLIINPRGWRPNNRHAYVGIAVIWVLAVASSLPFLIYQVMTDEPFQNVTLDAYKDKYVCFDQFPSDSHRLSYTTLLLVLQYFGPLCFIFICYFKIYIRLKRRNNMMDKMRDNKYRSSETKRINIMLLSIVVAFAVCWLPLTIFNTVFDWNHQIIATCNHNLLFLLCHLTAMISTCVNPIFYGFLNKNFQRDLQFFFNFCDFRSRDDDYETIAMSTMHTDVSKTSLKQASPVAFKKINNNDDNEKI
In short: as §1

T2 sequence (P41146 whole entry): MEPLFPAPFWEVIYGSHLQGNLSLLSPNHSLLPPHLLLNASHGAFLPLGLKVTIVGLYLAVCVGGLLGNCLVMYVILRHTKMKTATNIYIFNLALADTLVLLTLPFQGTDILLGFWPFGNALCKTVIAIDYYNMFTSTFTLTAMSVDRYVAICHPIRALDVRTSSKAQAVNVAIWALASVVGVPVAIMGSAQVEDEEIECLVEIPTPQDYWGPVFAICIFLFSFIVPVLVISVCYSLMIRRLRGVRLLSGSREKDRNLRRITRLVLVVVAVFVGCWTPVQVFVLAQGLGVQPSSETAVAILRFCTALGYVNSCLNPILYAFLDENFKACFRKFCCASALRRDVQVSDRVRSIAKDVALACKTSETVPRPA
T1 sequence (P41143 whole entry): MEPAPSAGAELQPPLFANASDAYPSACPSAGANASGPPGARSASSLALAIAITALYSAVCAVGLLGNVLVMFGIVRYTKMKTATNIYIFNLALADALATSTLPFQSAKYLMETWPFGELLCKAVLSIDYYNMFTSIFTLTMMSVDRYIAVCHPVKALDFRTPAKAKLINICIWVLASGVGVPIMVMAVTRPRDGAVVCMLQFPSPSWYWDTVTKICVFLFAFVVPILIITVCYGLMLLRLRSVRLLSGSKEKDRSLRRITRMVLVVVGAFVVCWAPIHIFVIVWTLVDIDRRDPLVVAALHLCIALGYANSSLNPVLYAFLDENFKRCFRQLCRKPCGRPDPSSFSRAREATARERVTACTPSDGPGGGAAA
T9 sequence (P33032 whole entry): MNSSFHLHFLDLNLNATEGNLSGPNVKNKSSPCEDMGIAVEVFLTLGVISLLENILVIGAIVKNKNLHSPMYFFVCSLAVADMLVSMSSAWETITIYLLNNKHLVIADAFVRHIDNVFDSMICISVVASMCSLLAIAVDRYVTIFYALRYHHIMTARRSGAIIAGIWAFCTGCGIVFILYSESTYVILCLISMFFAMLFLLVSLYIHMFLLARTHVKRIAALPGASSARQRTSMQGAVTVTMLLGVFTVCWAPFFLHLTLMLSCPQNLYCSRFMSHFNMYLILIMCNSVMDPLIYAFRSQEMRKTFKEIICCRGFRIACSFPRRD
T4 sequence (Q99705 whole entry): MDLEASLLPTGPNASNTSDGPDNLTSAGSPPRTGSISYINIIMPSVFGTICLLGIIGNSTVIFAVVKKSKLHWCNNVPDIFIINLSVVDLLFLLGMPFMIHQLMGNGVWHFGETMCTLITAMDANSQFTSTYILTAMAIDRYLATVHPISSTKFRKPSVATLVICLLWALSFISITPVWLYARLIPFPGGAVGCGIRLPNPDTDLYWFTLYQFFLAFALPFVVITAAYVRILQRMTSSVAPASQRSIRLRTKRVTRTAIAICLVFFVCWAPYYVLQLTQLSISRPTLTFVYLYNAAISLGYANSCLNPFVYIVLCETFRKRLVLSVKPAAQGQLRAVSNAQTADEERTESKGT
T6 sequence (P32245 whole entry): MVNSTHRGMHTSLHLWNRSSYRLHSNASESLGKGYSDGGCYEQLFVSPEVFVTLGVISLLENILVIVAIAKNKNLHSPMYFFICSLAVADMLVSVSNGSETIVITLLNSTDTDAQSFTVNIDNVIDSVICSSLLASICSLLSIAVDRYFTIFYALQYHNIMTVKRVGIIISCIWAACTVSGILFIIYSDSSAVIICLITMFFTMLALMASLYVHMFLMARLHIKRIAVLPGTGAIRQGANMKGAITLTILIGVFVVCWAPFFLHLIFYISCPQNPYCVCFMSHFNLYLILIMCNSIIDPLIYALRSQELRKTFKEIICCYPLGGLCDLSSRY
T5 sequence (P41145 whole entry): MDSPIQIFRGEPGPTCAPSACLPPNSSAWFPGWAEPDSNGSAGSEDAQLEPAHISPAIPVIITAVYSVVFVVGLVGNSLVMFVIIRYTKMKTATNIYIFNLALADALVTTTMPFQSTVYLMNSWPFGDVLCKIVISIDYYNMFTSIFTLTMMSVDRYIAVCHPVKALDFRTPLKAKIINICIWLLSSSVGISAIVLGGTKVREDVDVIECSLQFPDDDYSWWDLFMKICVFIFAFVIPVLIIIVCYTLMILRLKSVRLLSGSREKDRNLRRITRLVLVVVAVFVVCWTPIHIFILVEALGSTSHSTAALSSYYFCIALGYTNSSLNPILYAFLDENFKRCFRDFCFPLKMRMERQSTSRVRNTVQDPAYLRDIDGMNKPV
T10 sequence (P41968 whole entry): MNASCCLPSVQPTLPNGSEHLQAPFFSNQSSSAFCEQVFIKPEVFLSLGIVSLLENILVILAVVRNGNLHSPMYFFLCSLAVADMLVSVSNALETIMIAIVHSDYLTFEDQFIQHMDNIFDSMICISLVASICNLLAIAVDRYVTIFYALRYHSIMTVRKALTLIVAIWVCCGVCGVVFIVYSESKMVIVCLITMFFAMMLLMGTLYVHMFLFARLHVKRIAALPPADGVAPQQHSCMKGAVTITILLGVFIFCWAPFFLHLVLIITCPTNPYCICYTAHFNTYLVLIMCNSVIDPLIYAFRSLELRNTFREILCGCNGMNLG
T8 sequence (P35372 whole entry): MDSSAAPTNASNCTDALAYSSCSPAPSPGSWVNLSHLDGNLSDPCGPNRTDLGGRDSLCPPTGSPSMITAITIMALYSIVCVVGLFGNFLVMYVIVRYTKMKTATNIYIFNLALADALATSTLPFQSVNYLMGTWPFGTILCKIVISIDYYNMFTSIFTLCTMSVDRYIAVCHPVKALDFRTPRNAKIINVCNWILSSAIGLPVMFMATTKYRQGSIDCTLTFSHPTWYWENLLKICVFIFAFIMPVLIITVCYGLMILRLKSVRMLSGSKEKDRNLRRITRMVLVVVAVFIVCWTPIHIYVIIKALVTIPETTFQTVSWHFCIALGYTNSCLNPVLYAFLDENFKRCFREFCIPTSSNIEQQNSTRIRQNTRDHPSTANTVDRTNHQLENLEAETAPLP
T7 sequence (P25103 whole entry): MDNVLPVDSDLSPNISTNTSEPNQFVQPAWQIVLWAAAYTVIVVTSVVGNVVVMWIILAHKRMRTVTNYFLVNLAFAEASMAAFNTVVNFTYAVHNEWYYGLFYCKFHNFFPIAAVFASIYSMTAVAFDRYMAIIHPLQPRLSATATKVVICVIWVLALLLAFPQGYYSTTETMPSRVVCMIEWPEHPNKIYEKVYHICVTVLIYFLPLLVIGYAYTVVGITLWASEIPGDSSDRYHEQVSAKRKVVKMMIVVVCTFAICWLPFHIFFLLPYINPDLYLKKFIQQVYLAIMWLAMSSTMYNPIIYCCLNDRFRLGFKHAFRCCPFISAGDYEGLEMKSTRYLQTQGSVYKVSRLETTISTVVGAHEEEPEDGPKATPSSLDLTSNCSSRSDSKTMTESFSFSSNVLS

N=C(N)NCC(=O)NC1C(OCc2ccc(-c3ccccc3)cc2)OC(COCc2ccc3ccccc3c2)C(O)C1OCc1ccc(-c2ccccc2)cc1 (stereo not shown) [compound 405]
A1: inhibition of radioligand binding ([1]; [3H]-Bremazocine, human DOP membranes): − (“−” indicates less than 50% inhibition at 10 μM) | A10: inhibition of radioligand binding ([2]; [125I]-Nociceptin, human ORL1 membranes): − (“−” indicates less than 50% inhibition at 10 μM) | A11: inhibition of radioligand binding ([3]; [125I]-Urotensin II, mouse mUR2 membranes): − (“−” indicates less than 50% inhibition at 10 μM) | A6: inhibition of radioligand binding ([4]; [125I]-S36057, human MCH1 membranes): − (“−” indicates less than 50% inhibition at 10 μM) | A2: inhibition of radioligand binding ([5]; [3H]-Diprenorphine, human KOP membranes): − (“−” indicates less than 50% inhibition at 10 μM) | A4: inhibition of radioligand binding ([6]; [125I]-NDP-αMSH, human MC4 membranes): − (“−” indicates less than 50% inhibition at 10 μM) | A8: inhibition of radioligand binding ([7]; [125I]-Substance P, human NK1 membranes): + (“+” indicates greater than 50% inhibition at 10 μM) | A7: inhibition of radioligand binding ([8]; [3H]-Naloxone, human MOP membranes): − (“−” indicates less than 50% inhibition at 10 μM) | A5: inhibition of radioligand binding ([9]; [125I]-NDP-αMSH, human MC5 membranes): + (“+” indicates greater than 50% inhibition at 10 μM) | A3: inhibition of radioligand binding ([10]; [125I]-NDP-αMSH, human MC3 membranes): + (“+” indicates greater than 50% inhibition at 10 μM) | A9: inhibition of radioligand binding ([11]; [125I]-PYY, human NPY-Y1 membranes): − (“−” indicates less than 50% inhibition at 10 μM)

NCCCC(=O)NC1C(OCc2ccccc2)OC(COCc2ccc3ccccc3c2)C(O)C1OCc1ccc2ccccc2c1 (stereo not shown) [compound 375]
A1: inhibition of radioligand binding, human δ-opioid (DOP) ([1]; [3H]-Bremazocine): − (“−” indicates less than 50% inhibition at 10 μM) | A10: inhibition of radioligand binding, human opioid (ORL1) ([2]; [125I]-Nociceptin): − (“−” indicates less than 50% inhibition at 10 μM) | A11: inhibition of radioligand binding, mouse urotensin (mUR2) ([3]; [125I]-Urotensin II): − (“−” indicates less than 50% inhibition at 10 μM) | A6: inhibition of radioligand binding, human melanin-concentrating hormone (MCH1) ([4]; [125I]-S36057): − (“−” indicates less than 50% inhibition at 10 μM) | A2: inhibition of radioligand binding, human κ-opioid (KOP) ([5]; [3H]-Diprenorphine): − (“−” indicates less than 50% inhibition at 10 μM) | A4: inhibition of radioligand binding, human melanocortin (MC4) ([6]; [125I]-NDP-αMSH): + (“+” indicates greater than 50% inhibition at 10 μM) | A8: inhibition of radioligand binding, human neurokinin (NK1) ([7]; [125I]-Substance P): + (“+” indicates greater than 50% inhibition at 10 μM) | A7: inhibition of radioligand binding, human μ-opioid (MOP) ([8]; [3H]-Naloxone): − (“−” indicates less than 50% inhibition at 10 μM) | A5: inhibition of radioligand binding, human melanocortin (MC5) ([9]; [125I]-NDP-αMSH): + (“+” indicates greater than 50% inhibition at 10 μM) | A3: inhibition of radioligand binding, human melanocortin (MC3) ([10]; [125I]-NDP-αMSH): − (“−” indicates less than 50% inhibition at 10 μM) | A9: inhibition of radioligand binding, human neuropeptide Y (NPY-Y1) ([11]; [125I]-PYY): − (“−” indicates less than 50% inhibition at 10 μM)

CO[C@H]1[C@H](O)[C@@H](COCc2ccc(Cl)cc2)OC(OCc2ccc3ccccc3c2)[C@@H]1NC(=O)CCCN (stereo partly shown) [compound 80]
A1 radioligand binding inhibition [1]: − (“−” indicates less than 50% inhibition at 10 μM) | A10 radioligand binding inhibition ([2]; human ORL1 membranes): − (“−” indicates less than 50% inhibition at 10 μM) | A11 radioligand binding inhibition [3]: − (“−” indicates less than 50% inhibition at 10 μM) | A6 radioligand binding inhibition [4]: − (“−” indicates less than 50% inhibition at 10 μM) | A2 radioligand binding inhibition [5]: − (“−” indicates less than 50% inhibition at 10 μM) | A4 radioligand binding inhibition [6]: + (“+” indicates greater than 50% inhibition at 10 μM) | A8 radioligand binding inhibition [7]: + (“+” indicates greater than 50% inhibition at 10 μM) | A7 radioligand binding inhibition [8]: − (“−” indicates less than 50% inhibition at 10 μM) | A5 radioligand binding inhibition [9]: + (“+” indicates greater than 50% inhibition at 10 μM) | A3 radioligand binding inhibition [10]: − (“−” indicates less than 50% inhibition at 10 μM) | A9 radioligand binding inhibition ([11]; human NPY-Y1 membranes): − (“−” indicates less than 50% inhibition at 10 μM)

COC[C@H]1OC(OCc2ccc3ccccc3c2)[C@H](NC(=O)CCNC(=N)N)[C@@H](OCc2ccccc2)[C@@H]1O (stereo partly shown) [compound 19]
A1 radioligand binding inhibition [1]: − (“−” indicates less than 50% inhibition at 10 μM) | A10 radioligand binding inhibition ([2]; human ORL1 membranes): − (“−” indicates less than 50% inhibition at 10 μM) | A11 radioligand binding inhibition [3]: − (“−” indicates less than 50% inhibition at 10 μM) | A6 radioligand binding inhibition [4]: − (“−” indicates less than 50% inhibition at 10 μM) | A2 radioligand binding inhibition [5]: − (“−” indicates less than 50% inhibition at 10 μM) | A4 radioligand binding inhibition [6]: − (“−” indicates less than 50% inhibition at 10 μM) | A8 radioligand binding inhibition [7]: + (“+” indicates greater than 50% inhibition at 10 μM) | A7 radioligand binding inhibition [8]: + (“+” indicates greater than 50% inhibition at 10 μM) | A5 radioligand binding inhibition [9]: − (“−” indicates less than 50% inhibition at 10 μM) | A3 radioligand binding inhibition [10]: − (“−” indicates less than 50% inhibition at 10 μM) | A9 radioligand binding inhibition ([11]; human NPY-Y1 membranes): − (“−” indicates less than 50% inhibition at 10 μM)

COCC1OC(OCc2ccccc2)C(NC(=O)CNC(=N)N)C(OCc2ccc(Cl)cc2)C1O (stereo not shown) [compound 177]
A1 radioligand binding, percentage inhibition ([1]; [3H]-Bremazocine): − (“−” indicates less than 50% inhibition at 10 μM) | A10 radioligand binding, percentage inhibition ([2]; [125I]-Nociceptin): − (“−” indicates less than 50% inhibition at 10 μM) | A11 radioligand binding, percentage inhibition ([3]; [125I]-Urotensin II): − (“−” indicates less than 50% inhibition at 10 μM) | A6 radioligand binding, percentage inhibition ([4]; [125I]-S36057): − (“−” indicates less than 50% inhibition at 10 μM) | A2 radioligand binding, percentage inhibition ([5]; [3H]-Diprenorphine): − (“−” indicates less than 50% inhibition at 10 μM) | A4 radioligand binding, percentage inhibition ([6]; [125I]-NDP-αMSH): + (“+” indicates greater than 50% inhibition at 10 μM) | A8 radioligand binding, percentage inhibition ([7]; [125I]-Substance P): + (“+” indicates greater than 50% inhibition at 10 μM) | A7 radioligand binding, percentage inhibition ([8]; [3H]-Naloxone): − (“−” indicates less than 50% inhibition at 10 μM) | A5 radioligand binding, percentage inhibition ([9]; [125I]-NDP-αMSH): + (“+” indicates greater than 50% inhibition at 10 μM) | A3 radioligand binding, percentage inhibition ([10]; [125I]-NDP-αMSH): + (“+” indicates greater than 50% inhibition at 10 μM) | A9 radioligand binding, percentage inhibition ([11]; [125I]-PYY): − (“−” indicates less than 50% inhibition at 10 μM)
